Reference: ChEMBL document CHEMBL4052706, “Isolation, structure elucidation, and synthesis of antiplasmodial quinolones from Crinum firmifolium” (Bioorg Med Chem, 2017)

Legend:
Plasmodium falciparum [1] = experiment: Antiplasmodial activity against chloroquine/mefloquine-resistant Plasmodium falciparum Dd2 incubated for 72 hrs by SYBR green 1 dye based fluorescence assay; type: functional; conditions: Dd2, 72 h
[2] = Selectivity ratio of IC50 for human A2780 cells to IC50 for chloroquine/mefloquine-resistant Plasmodium falciparum Dd2
A2780 = experiment: Antiproliferative activity against human A2780 cells after 2 days by Alamar blue assay; type: cell-based; conditions: A2780, 48 h
Plasmodium falciparum [3] = experiment: Antiplasmodial activity against chloroquine-sensitive Plasmodium falciparum 3D7 incubated for 72 hrs by SYBR green 1 dye based fluorescence assay; type: functional; conditions: 3D7, 72 h

Row | SMILES | IC50 (Plasmodium falciparum [1]) | Ratio IC50 [2] | IC50 (A2780) | IC50 (Plasmodium falciparum [3])
1 | CCCCCCCCc1cc(=O)c2ccccc2[nH]1 | 3.65 µM | 3.4 | 12 µM | –
2 | CCCC(C)CCCc1cc(=O)c2ccccc2[nH]1 (centres undefined) | 0.33 µM | 89 | 29 µM | 0.385 µM
3 | COc1cc2c(cc1O)c(=O)n1ccc3cccc2c31 | > 38 µM | – | > 75 µM | –
4 | CC(C)CCCCCc1cc(=O)c2ccccc2[nH]1 | 0.583 µM | 57.7 | 34 µM | 0.501 µM
5 | CCC(C)CCCCc1cc(=O)c2ccccc2[nH]1 (centres undefined) | 0.75 µM | 11.6 | 8.7 µM | 0.921 µM
6 | CNc1ccccc1-c1cc2c(cc1CO)OCO2 | > 39 µM | – | > 78 µM | –
7 | CCCCCCCc1cc(=O)c2ccccc2[nH]1 | 1.31 µM | – | 35 µM | –
8 | C[C@@H]1CC[C@H]2[C@@H](C)C(=O)O[C@@H]3O[C@@]4(C)CC[C@@H]1[C@]32OO4 [ARTEMISININ] | 0.009 µM | – | – | 0.0059 µM
9 | CC(=O)O[C@H]1C(=O)[C@@]2(C)[C@H]([C@H](OC(=O)c3ccccc3)[C@]3(O)C[C@H](OC(=O)[C@H](O)[C@@H](NC(=O)c4ccccc4)c4ccccc4)C(C)=C1C3(C)C)[C@]1(OC(C)=O)CO[C@@H]1C[C@@H]2O [PACLITAXEL] | – | – | 0.0137 µM | –
